These results are taken from patent US9272990B2, “Lysophosphatidic acid receptor antagonists and their use in the treatment fibrosis” (AMIRA PHARMACEUTICALS, INC., priority 2010, dated 2016).

This assay deals with T1, Human LPA1 (Homo sapiens, UniProt Q92633).
T1 construct: the full-length cDNA for human LPA1 was obtained by PCR of the reverse transcription reaction; expressed in transfected cells
T1 sequence (Q92633 whole entry): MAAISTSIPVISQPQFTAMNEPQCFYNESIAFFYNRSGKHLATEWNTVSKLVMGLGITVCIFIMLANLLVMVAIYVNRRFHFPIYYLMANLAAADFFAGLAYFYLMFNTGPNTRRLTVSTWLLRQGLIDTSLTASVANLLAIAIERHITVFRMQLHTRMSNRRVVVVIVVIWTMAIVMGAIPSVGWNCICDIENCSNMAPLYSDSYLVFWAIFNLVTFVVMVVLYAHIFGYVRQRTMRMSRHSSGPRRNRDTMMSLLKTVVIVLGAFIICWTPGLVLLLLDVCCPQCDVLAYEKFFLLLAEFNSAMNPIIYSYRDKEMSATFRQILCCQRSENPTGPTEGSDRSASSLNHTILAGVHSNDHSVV
Nature of the assay: LPA1 calcium flux assay. Format: cell-based. The following applies: CHO cells expressing human LPA1, stimulated with 10 nM LPA; read-out: LPA1 Ca^2+ flux. The method, then: A 1.1 kb cDNA encoding the human LPA1 receptor was cloned from human lung. Human lung RNA (Clontech Laboratories, Inc. USA) was reverse transcribed using the RETROSCRIPT® kit (Ambion, Inc.) and the full-length cDNA for human LPA1 was obtained by PCR of the reverse transcription reaction. The nucleotide sequence of the cloned human LPA1 was determined by sequencing and confirmed to be identical to the published human LPA1 sequence (An et al., Biochem. Biophys. Res. Commun. 231:619 (1997). The cDNA was cloned into the pcDNA5/FRT expression plasmid and transfected in CHO cells using Lipofectamine 2000 (Invitrogen Corp., USA). Clones stably expressing human LPA1 were selected using hygromycin and identified as cells that show Ca-influx in response to LPA.
Human LPA1 or LPA3 expressing CHO cells are seeded at 20,000-45,000 cells per well in a 96-well poly-D-lysine coated plate one or two days before the assay. Prior to the assay, the cells are washed once with PBS and then cultured in serum-free media overnight. On the day of the assay, a calcium indicator dye (Calcium 4, Molecular Devices) in assay buffer (HBSS with Ca^2+ and Mg^2+ and containing 20 mM Hepes and 0.3% fatty-acid free human serum albumin) is added to each well and incubation continued for 1 hour at 37° C. 10 μl of test compounds in 2.5% DMSO are added to the cells and incubation continued at room temperature for 30 minutes. Cells are the stimulated by the addition of 10 nM LPA and intracellular Ca^2+ measured using the FLEXSTATION® 3 (Molecular Devices). IC50s are determined using Graphpad prism analysis of drug titration curves.
Turning to `C[C@@H](OC(=O)Nc1ccccc1-c1ccc(-c2ccc(C3(C(=O)O)CC3)cc2)cc1)c1ccccc1` [Compound 1-2, 1-[2″-((R)-1-phenyl-ethoxycarbonylamino)-[1,1′;4′,1″]terphenyl-4-yl]-cyclopropanecarboxylic acid], the IC50 is under 300 nM.

As for `O=C(O)C1(c2ccc(-c3ccc(-c4ccncc4C(O)CCCc4ccccc4)cc3)cc2)CC1` (centres unmarked) [Compound 1-9, 1-{4′-[3-(1-Hydroxy-4-phenyl-butyl)-pyridin-4-yl]-biphenyl-4-yl}-cyclopropanecarboxylic acid], the IC50 is under 300 nM.

For `O=C(O)C1(c2ccc(-c3ccc(-c4ncc5ccccc5c4C(O)CCCc4ccccc4)cc3)cc2)CC1` (centres unmarked) [Compound 1-16, 1-{4′-[4-(1-hydroxy-4-phenyl-butyl)-isoquinolin-3-yl]-biphenyl-4-yl}-cyclopropanecarboxylic acid], the IC50 was 1000 to 10000 nM.

Regarding `Cn1ncc(-c2ccc(-c3ccc(C4(CC(=O)O)CC4)cc3)cc2)c1C(O)CCCc1ccccc1` (centres unmarked) [Compound 1-10, (1-{4′-[5-(1-hydroxy-4-phenyl-butyl)-1-methyl-1H-pyrazol-4-yl]-biphenyl-4-yl}-cyclopropyl)-acetic acid], the IC50 was under 300 nM.

As to `CCn1ncc(-c2ccc(-c3ccc(C4(CC(=O)O)CC4)cc3)cc2)c1C(O)CCCc1ccccc1` (centres unmarked) [Compound 1-24, (1-{4′-[1-ethyl-5-(1-hydroxy-4-phenyl-butyl)-1H-pyrazol-4-yl]-biphenyl-4-yl}-cyclopropyl)-acetic acid], the IC50 is under 300 nM.

For `O=C(O)CC1(c2ccc(-c3ccc(-c4ccsc4C(O)CCCc4ccccc4)cc3)cc2)CC1` (centres unmarked) [Compound 1-13, (1-{4′-[2-(1-hydroxy-4-phenyl-butyl)-thiophen-3-yl]-biphenyl-4-yl}-cyclopropyl)-acetic acid], the IC50 is under 300 nM.

As for `O=C(O)C1(c2ccc(-c3ccc(-c4sccc4C(O)CCCc4ccccc4)cc3)cc2)CC1` (single isomer, unassigned) [Compound 1-27, 1-{4′-[3-(1-hydroxy-4-phenyl-butyl)-thiophen-2-yl]-biphenyl-4-yl}-cyclopropanecarboxylic acid], the IC50 was under 300 nM.

For `O=C(O)CC1(c2ccc(-c3ccc(-c4ccncc4C(O)CCCc4ccccc4)cc3)cc2)CC1` (centres unmarked) [Compound 1-8, (1-{4′-[3-(1-hydroxy-4-phenyl-butyl)-pyridin-4-yl]-biphenyl-4-yl}-cyclopropyl)-acetic acid], the IC50 was in the range of 300 to 1000 nM.

As for `CC(CCc1ccc(Cl)cc1)Nc1c(-c2ccc(-c3ccc(C4(C(=O)O)CC4)cc3)cc2)cnn1C` (centres unmarked) [Compound 1-21, 1-(4′-{5-[3-(4-chloro-phenyl)-1-methyl-propylamino]-1-methyl-1H-pyrazol-4-yl}-biphenyl-4-yl)-cyclopropanecarboxylic acid], the IC50 was under 300 nM.

Regarding `O=C(O)C1(c2ccc(-c3ccc(-c4sccc4C(O)CCCc4ccccc4)cc3)cc2)CC1` (centres unmarked) [Compound 1-18, 1-{4′-[3-(1-hydroxy-4-phenyl-butyl)-thiophen-2-yl]-biphenyl-4-yl}-cyclopropanecarboxylic acid], the IC50 is under 300 nM.

Take `O=C(O)CC1(c2ccc(-c3ccc(-c4ncccc4C(O)CCCc4ccccc4)cc3)cc2)CC1` (centres unmarked) [Compound 1-12, (1-{4′-[3-(1-hydroxy-4-phenyl-butyl)-pyridin-2-yl]-biphenyl-4-yl}-cyclopropyl)-acetic acid]: the IC50 was under 300 nM.

As for `Cn1ncc(-c2ccc(-c3ccc(C4(C(=O)O)CC4)cc3)cc2)c1C(O)CCCc1ccccc1` (centres unmarked) [Compound 1-11, 1-{4′-[5-(1-hydroxy-4-phenyl-butyl)-1-methyl-1H-pyrazol-4-yl]-biphenyl-4-yl}-cyclopropanecarboxylic acid], the IC50 is under 300 nM.

As for `O=C(O)C1(c2ccc(-c3ccc(-c4cscc4C(O)CCCc4ccccc4)cc3)cc2)CC1` (centres unmarked) [Compound 1-15, 1-{4′-[4-(1-hydroxy-4-phenyl-butyl)-thiophen-3-yl]-biphenyl-4-yl}-cyclopropanecarboxylic acid], the IC50 is under 300 nM.

Turning to `CCn1ncc(-c2ccc(-c3ccc(C4(C(=O)O)CC4)cc3)cc2)c1C(O)CCCc1ccccc1` (centres unmarked) [Compound 1-23, 1-{4′-[1-ethyl-5-(1-hydroxy-4-phenyl-butyl)-1H-pyrazol-4-yl]-biphenyl-4-yl}-cyclopropanecarboxylic acid], the IC50 was under 300 nM.

Take `O=C(O)C1(c2ccc(-c3ccc(-c4cnccc4C(O)CCCc4ccccc4)cc3)cc2)CC1` (centres unmarked) [Compound 1-17, 1-{4′-[4-(1-hydroxy-4-phenyl-butyl)-pyridin-3-yl]-biphenyl-4-yl}-cyclopropanecarboxylic acid]: the IC50 was under 300 nM.

Regarding `O=C(O)CC1(c2ccc(-c3ccc(-c4sccc4C(O)CCCc4ccccc4)cc3)cc2)CC1` (centres unmarked) [Compound 1-19, (1-{4′-[3-(1-hydroxy-4-phenyl-butyl)-thiophen-2-yl]-biphenyl-4-yl}-cyclopropyl)-acetic acid], the IC50 is under 300 nM.

For `Cn1ncc(-c2ccc(-c3ccc(C4(C(=O)O)CC4)cc3)cc2)c1NCc1cnc(-c2ccccc2)s1` [Compound 1-25, 1-(4′-{1-methyl-5-[(2-phenyl-thiazol-5-ylmethyl)-amino]-1H-pyrazol-4-yl}-biphenyl-4-yl)-cyclopropanecarboxylic acid], the IC50 is 1000 to 10000 nM.

For `Cn1ncc(-c2ccc(-c3ccc(C4(C(=O)O)CC4)cc3)cc2)c1C(O)c1cn(Cc2ccccc2)nn1` (centres unmarked) [Compound 1-22, 1-(4′-{5-[(1-benzyl-1H-[1,2,3]triazol-4-yl)-hydroxy-methyl]-1-methyl-1H-pyrazol-4-yl}-biphenyl-4-yl)-cyclopropanecarboxylic acid], the IC50 is under 300 nM.

Consider `O=C(O)C1(c2ccc(-c3ccc(-c4sccc4C(O)CCCc4ccccc4)cc3)cc2)CC1` (single isomer, unassigned) [Compound 1-26, 1-{4′-[3-(1-hydroxy-4-phenyl-butyl)-thiophen-2-yl]-biphenyl-4-yl}-cyclopropanecarboxylic acid], for which the IC50 is under 300 nM.

`O=C(O)C1(c2ccc(-c3ccc(-c4ccccc4C(O)CCCc4ccccc4)cc3)cc2)CC1` (centres unmarked) [Compound 1-7, 1-[2-(1-hydroxy-4-phenyl-butyl)-[1,1′;4′,1″]terphenyl-4″-yl]-cyclopropanecarboxylic acid]: the IC50 was under 300 nM.

`C[C@@H](OC(=O)Nc1ncoc1-c1ccc(-c2ccc(C3(C(=O)O)CC3)cc2)cc1)c1ccccc1` [Compound 1-4, 1-{4′-[4-((R)-1-phenyl-ethoxycarbonylamino)-oxazol-5-yl]-biphenyl-4-yl}-cyclopropanecarboxylic acid]: the IC50 is under 300 nM.

Consider `O=C(O)C1(c2ccc(-c3ccc(-c4ncccc4C(O)CCCc4ccccc4)cc3)cc2)CC1` (centres unmarked) [Compound 1-5, 1-{4′-[3-(1-hydroxy-4-phenyl-butyl)-pyridin-2-yl]-biphenyl-4-yl}-cyclopropanecarboxylic acid], for which the IC50 was under 300 nM.

As to `O=C(O)CC1(c2ccc(-c3ccc(-c4cscc4C(O)CCCc4ccccc4)cc3)cc2)CC1` (centres unmarked) [Compound 1-14, (1-{4′-[4-(1-hydroxy-4-phenyl-butyl)-thiophen-3-yl]-biphenyl-4-yl}-cyclopropyl)-acetic acid], the IC50 is under 300 nM.

As to `C[C@@H](OC(=O)Nc1cnccc1-c1ccc(-c2ccc(C3(C(=O)O)CC3)cc2)cc1)c1ccccc1` [Compound 1-3, 1-{4′-[3-((R)-1-phenyl-ethoxycarbonylamino)-pyridin-4-yl]-biphenyl-4-yl}-cyclopropanecarboxylic acid], the IC50 lay in the range of 300 to 1000 nM.

Regarding `O=C(O)C1(c2ccc(-c3ccc(-c4ccsc4C(O)CCCc4ccccc4)cc3)cc2)CC1` (centres unmarked) [Compound 1-6, 1-{4′-[2-(1-hydroxy-4-phenyl-butyl)-thiophen-3-yl]-biphenyl-4-yl}-cyclopropanecarboxylic acid], the IC50 is under 300 nM.

For the compound `Cn1ncc(-c2ccc(-c3ccc(C4(C(=O)O)CC4)cc3)cc2)c1Nc1cccc(-c2ccccc2)n1` [Compound 1-20, 1-{4′-[1-methyl-5-(6-phenyl-pyridin-2-ylamino)-1H-pyrazol-4-yl]-biphenyl-4-yl}-cyclopropanecarboxylic acid], the IC50 is under 300 nM.
